{"source": "paper PMC5344036", "about": "(Molecular imaging and biology : MIB : the official …, 2014)", "key": {"α7-nAChR [1]": {"target": "α7-nAChR (Mus musculus, UniProt P49582)", "sequence (P49582 23-502)": "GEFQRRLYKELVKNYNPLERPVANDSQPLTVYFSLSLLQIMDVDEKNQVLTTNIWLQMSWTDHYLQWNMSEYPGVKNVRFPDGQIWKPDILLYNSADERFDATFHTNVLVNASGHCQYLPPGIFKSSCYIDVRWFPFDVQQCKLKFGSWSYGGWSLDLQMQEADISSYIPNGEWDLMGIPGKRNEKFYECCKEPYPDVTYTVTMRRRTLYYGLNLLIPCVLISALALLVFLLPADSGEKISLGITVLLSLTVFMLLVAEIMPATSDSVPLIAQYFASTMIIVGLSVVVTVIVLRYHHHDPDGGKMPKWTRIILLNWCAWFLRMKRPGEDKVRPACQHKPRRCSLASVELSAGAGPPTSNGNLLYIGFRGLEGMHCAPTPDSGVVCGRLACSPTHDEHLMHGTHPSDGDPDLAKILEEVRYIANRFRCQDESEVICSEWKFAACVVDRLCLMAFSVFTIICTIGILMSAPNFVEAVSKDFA", "format": "in vivo, CD1 mice", "settings": "90 min post-tracer"}, "α7-nAChR [2]": {"system": "α7-nAChR", "settings": "monkey PET, injection of SSR180711; cited from earlier work"}, "α7-nAChR [3]": {"system": "α7-nAChR", "settings": "mouse brain, prior studies of the authors; cited from earlier work"}, "α7-nAChR [4]": {"system": "α7-nAChR", "settings": "baboon brain, prior studies of the authors; cited from earlier work"}, "α7-nAChR [5]": {"target": "α7-nAChR", "settings": "rat hippocampus or human α7-nAChR recombinant membranes; cited from earlier work"}, "α7-nAChRs": {"target": "α7-nAChRs", "settings": "read-out: equilibrium dissociation constant KD; rat; cited from earlier work"}, "α7-nAChR [6]": {"target": "T1, α7-nAChR (Homo sapiens, UniProt P36544)", "T1 sequence (P36544 23-502)": "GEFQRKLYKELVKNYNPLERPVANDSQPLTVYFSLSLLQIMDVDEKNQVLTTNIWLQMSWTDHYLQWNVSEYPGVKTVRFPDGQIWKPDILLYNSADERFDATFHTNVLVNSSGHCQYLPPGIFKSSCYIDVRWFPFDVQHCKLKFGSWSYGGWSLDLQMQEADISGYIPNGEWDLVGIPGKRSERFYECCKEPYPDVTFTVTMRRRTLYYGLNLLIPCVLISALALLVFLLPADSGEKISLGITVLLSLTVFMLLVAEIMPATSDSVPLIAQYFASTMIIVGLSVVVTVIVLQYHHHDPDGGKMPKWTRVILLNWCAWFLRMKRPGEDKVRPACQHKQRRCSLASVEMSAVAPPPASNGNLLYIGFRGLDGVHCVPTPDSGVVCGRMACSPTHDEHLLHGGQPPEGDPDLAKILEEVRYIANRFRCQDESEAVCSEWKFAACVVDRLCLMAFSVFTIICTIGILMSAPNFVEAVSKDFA", "settings": "single human PET experiment; cited from earlier work"}, "α7-nAChR [7]": {"target": "T1, α7-nAChR", "test": "Human PET brain imaging with [^18F]ASEM", "format": "in vivo"}, "[8]": {"test": "[^18F]ASEM metabolite analysis in human plasma", "format": "in vivo", "settings": "for parent [^18F]ASEM metabolized: human plasma"}}, "note": "Read-outs that look alike come from different tables or passages of the source.", "data": [{"smiles": "COc1ccc(/C=C2\\CCCN=C2c2cccnc2)c(OC)c1", "note": "[DMXB-A, Dimethoxybenzylidene anabaseine]", "values": [{"measurement": "blockade of [^18F]ASEM binding", "setting": "α7-nAChR [1]; 3 mg/kg IP, hippocampus, p<0.05", "value": 28, "unit": "%"}, {"measurement": "blockade of [^18F]ASEM binding", "setting": "α7-nAChR [1]; 10 mg/kg IP, hippocampus, cortex, subcolliculus, p<0.01", "value": "50–70%"}, {"measurement": "blockade of [^18F]ASEM binding", "setting": "α7-nAChR [1]; 0.1, 0.3 and 1 mg/kg IP", "value": "did not show significant blockade"}]}, {"smiles": "O=C(Oc1ccc(Br)cc1)N1CCN2CCC1CC2", "note": "[SSR180711]", "values": [{"measurement": "reduction of [^11C]CHIBA-1001 radioactivity in the high uptake regions", "setting": "α7-nAChR [2]", "value": "25–30%"}, {"measurement": "blockade of [^18F]ASEM binding", "setting": "α7-nAChR [3]", "value": "successfully blocked"}, {"measurement": "blockade of [^18F]ASEM binding", "setting": "α7-nAChR [4]", "value": "successfully blocked"}]}, {"smiles": "Cc1ccc(OC(=O)N2CCN3CCC2CC3)cc1", "note": "[[^3H]CHIBA-1001]", "values": [{"measurement": "Kd", "setting": "α7-nAChR [5]", "value": "120 to 180", "unit": "nM"}, {"measurement": "Kd", "setting": "α7-nAChRs", "value": 193, "unit": "nM"}]}, {"smiles": "[11CH3]c1ccc(OC(=O)N2CCN3CCC2CC3)cc1", "note": "[[^11C]CHIBA-1001]", "values": [{"measurement": "target-to-non-target ratios in the brain regions", "setting": "α7-nAChR [6]", "value": "< 1.3"}]}, {"smiles": "O=S1(=O)c2cc(N3CCN4CCC3CC4)ccc2-c2cccc([18F])c21", "note": "[[^18F]ASEM, 3-(1,4-diazabicyclo[3.2.2]nonan-4-yl)-6-[^18F]fluorodibenzo[b,d]thiophene 5,5-dioxide]", "values": [{"measurement": "distribution volume VT, lower-binding regions", "setting": "α7-nAChR [7]; entorhinal cortex, cerebellum, caudate, corpus callosum, PRGA", "value": "< 15", "unit": "ml/ml"}, {"measurement": "time of peak brain uptake post-injection", "setting": "α7-nAChR [7]; human brain, after IV bolus injection", "value": 15, "unit": "min"}, {"measurement": "test-retest variability (TRV) of VT", "setting": "α7-nAChR [7]; medium and high VT regions, two subjects, two scans separated by a few days", "value": "10.8±5.1", "unit": "%"}, {"measurement": "time of plasma TAC peak", "setting": "[8]; human arterial plasma", "value": "≤ 1", "unit": "min"}, {"measurement": "parent [^18F]ASEM metabolized", "setting": "[8]; 30 min post-injection", "value": "52.6±12.9", "unit": "%"}, {"measurement": "parent [^18F]ASEM metabolized", "setting": "[8]; 90 min post-injection", "value": "83.5±9.7", "unit": "%"}]}]}
